Earlier results, collected in publication PMC8319603, “Developing C2-Aroyl Indoles as Novel Inhibitors of IDO1 and Understanding Their Mechanism of Inhibition via Mass Spectroscopy, QM/MM Calculations and Molecular Dynamics Simulation” (Frontiers in Chemistry, 2021).
Where two headings read alike, the source gives them in different places.

How the values were obtained:
[1] = system: hIDO1; conditions: 2017, cited from earlier work
[2] = system: HeLa; conditions: Figure 1; ref Prendergast et al., 2017; cited from earlier work
[3] = system: SKOV3; set-up: method as in Siu et al., 2017; Wen et al., 2019; conditions: Figure 1; ref Siu et al., 2017; Wen et al., 2019; cited from earlier work

SMILES	IC50 ([1]; ref Prendergast et al., read-out: IC50 against IDO1) [nM]	IC50 [2] [nM]	IC50 [3] [nM]	IC50 ([1]; Figure 1, ref Siu et al., Wen et al., 2019, read-out: IC50 (IDO1)) [nM]
NS(=O)(=O)NCCNc1nonc1C(=NO)Nc1ccc(F)c(Br)c1 [1b]	[…]	1.5		
C[C@@H](C(=O)Nc1ccc(Cl)cc1)C1CCC(c2ccnc3ccc(F)cc23)CC1 (some centres unmarked) [1e]			3.4	
O=C1CC(c2c[nH]c3ccc(F)cc23)C(=O)N1 (centres unmarked) [1d]			70	[…]
